From US9539222B2, “Methods to inhibit intracellular growth of bacteria and to treat bacteria-mediated diseases” (priority 2012, dated 2017)
Where two headings read alike, the source gives them in different places.

Columns and labels:
[1] = tested on: H37Rv strain of Mycobacterium tuberculosis (MTB); type: cell-based
Mycobacterium bovis BCG = type: cell-based; settings: for difference from control (untreated infected cells) in mROS and BCG survival: THP1 cells or hMDM infected with BCG, 2 mM MET, 10 mM NAC or GSH, 24 hrs; for effect of ROS scavenger on Metformin-induced inhibition of growth of intracellular BCG: infected THP1 cells, 2 mM Metformin, 10 mM scavenger
[2] = tested on: reactive oxygen species (ROS); type: cell-based, human
mycobacterial phagosomes = type: cell-based, human
[3] = tested on: Mycobacterium tuberculosis (MTB); experiment: Acute infection model of MTB in C57BL/6 mice, lung and spleen bacillary load (CFU); type: in vivo
[4] = mice; cited from earlier work
BCG = experiment: microbe, parasite or virus in culture; type: cell-based, Mycobacterium bovis BCG; settings: for IC50: Mycobacterium tuberculosis variant bovis BCG, BCG, read-out: IC50 in MIC assay
[5] = 50 mg/Kg oral, 2-4 weeks of treatment

**Q.** With N[C@@H](CCC(=O)N[C@@H](CS)C(=O)NCC(=O)O)C(=O)O [GSH, glutathione] as the compound, how does the “difference from control in MTB survival (CFU)” value [1] read?
**A.** not significant

**Q.** And the “difference from control (untreated infected cells) in mROS and BCG survival” value (Mycobacterium bovis BCG)?
**A.** not significant

**Q.** And the “effect of ROS scavenger on Metformin-induced inhibition of growth of intracellular BCG” value (Mycobacterium bovis BCG)?
**A.** abolishment

**Q.** What does the source list for CN(C)C(=N)NC(=N)N.Cl [Metformin, N,N-dimethyl imidodicarbonimidic diamide hydrochloride]?
**A.** dose dependence of inhibition of intracellular MTB [1]: dose-dependent inhibition; mROS, time- and dose-dependent change [2]: increased significantly; production of cytoplasmic ROS (cROS), CM-H2DCFDA [2]: but not of cytoplasmic ROS (cROS); production of mitochondrial ROS (mROS), MitoSox [2]: increased; time in which inhibition of mycobacterial growth occurred (Mycobacterium bovis BCG; BCG-infected THP1 cells, 2 mM, no further reduction at later time points): ≤ 24 h; dose dependence of inhibition of intracellular mycobacteria (Mycobacterium bovis BCG; BCG-infected THP1 cells, CFU at 24 hrs): dose-dependent inhibition

**Q.** For CC(=O)N[C@@H](CS)C(=O)O [NAC, N-acetylcysteine], which “effect on Metformin-induced phagosomal acidification” value (mycobacterial phagosomes) is on record?
**A.** prevented

**Q.** What about the “difference from control in MTB survival (CFU)” value ([1]; […], 2 mM MET, 10 mM NAC or GSH, 24 hrs) of the same compound?
**A.** not significant

**Q.** What about the “difference from control (untreated infected cells) in mROS and BCG survival” value (Mycobacterium bovis BCG) of the same compound?
**A.** not significant

**Q.** And the “effect of ROS scavenger on Metformin-induced inhibition of growth of intracellular BCG” value (Mycobacterium bovis BCG)?
**A.** abolishment

**Q.** For Oc1ccc(/C=C/c2cc(O)cc(O)c2)cc1 [Resveratrol, 3,5,4′-trihydroxy-trans-stilbene], which “bacilli load in the lung compared to controls” value ([3]; 25 mg/Kg RES alone, oral) is on record?
**A.** did not reduce

**Q.** And the “CFU in the lung compared to control” value [3, 5]?
**A.** less CFU

**Q.** And the “CFU in the spleen compared to control” value [3, 5]?
**A.** less CFU

**Q.** What about the “Oral LD50” value [4] of the same compound?
**A.** ~2 g/kg

**Q.** With CCCCc1oc2ccccc2c1C(=O)c1cc(I)c(OCCN(CC)CC)c(I)c1 [amiodarone, (2-{4-[(2-butyl-1-benzofuran-3-yl)carbonyl]-2,6-diiodophenoxy}ethyl)diethylamine] as the compound, how does the “direct anti-mycobacterial activity in MIC assay” value (BCG; in vitro BCG growth) read?
**A.** showed inhibition of mycobacterial growth

**Q.** Which IC50 (BCG) does the source give for CO[C@H]1C[C@@H]2CC[C@@H](C)[C@@](O)(O2)C(=O)C(=O)N2CCCC[C@H]2C(=O)O[C@H]([C@H](C)C[C@@H]2CC[C@@H](O)[C@H](OC)C2)CC(=O)[C@H](C)/C=C(\C)[C@@H](O)[C@@H](OC)C(=O)[C@H](C)C[C@H](C)/C=C/C=C/C=C/1C [rapamycin] here?
**A.** ~13.8 µM

**Q.** Which “production of cytoplasmic ROS (cROS), CM-H2DCFDA” value [2] does the source give for C=C(C)[C@H]1Cc2c(ccc3c2O[C@@H]2COc4cc(OC)c(OC)cc4[C@@H]2C3=O)O1 [rotenone] here?
**A.** upregulated

**Q.** And the “production of mitochondrial ROS (mROS), MitoSox” value [2]?
**A.** upregulated

**Q.** Which IC50 (BCG) does the source give for CNC1C(OC2C(OC3C(O)C(O)C(NC(=N)N)C(O)C3NC(=N)N)OC(C)C2(O)C=O)OC(CO)C(O)C1O (stereo not shown) [streptomycin, 5-(2,4-diguanidino-3,5,6-trihydroxy-cyclohexoxy)-4-[4,5-dihydroxy-6-(hydroxymethyl)-3-methylamino-tetrahydropyran-2-yl]oxy-3-hydroxy-2-methyl-tetrahydrofuran-3-carbaldehyde] here?
**A.** ~0.2 µM
